According to US20250352611A1, “METHODS FOR TREATING CATARACTS USING POLYPEPTIDES” (REJUKON BIOPHARM INC., priority 2022, published 2025):

What was measured:
γD-crystallin = target: T1, γD-crystallin (Homo sapiens, UniProt P07320); experiment: γD-crystallin turbidity assay (OD395 nm) at 4° C.; assay type: biochemical; settings: γD-crystallin 50 mg/ml, RJK001 0-500 uM, 5 min
T1 construct: Wild-type human full-length γD-crystallin gene were inserted into pET14b vectors; made in house; host or cells: E. coli BL21 (DE3)
T1 sequence (P07320 1-174): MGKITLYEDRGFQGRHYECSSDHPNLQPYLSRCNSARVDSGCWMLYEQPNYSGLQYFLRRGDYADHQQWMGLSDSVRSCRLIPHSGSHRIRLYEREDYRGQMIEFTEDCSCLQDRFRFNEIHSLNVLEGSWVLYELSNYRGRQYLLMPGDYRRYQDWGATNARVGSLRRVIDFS
Method: The purified γD-crystallin was then dissolved in protein solubilization buffer to a final concentration of 50 mg/ml, Place γD-crystallin at 4° C. for 20 minutes to form a stable biphasic phase, add different concentration of the short peptide RJK001 in Sul γD-crystallin in a volume ratio of 1:1, final concentration of RJK001 from low to high is 0 uM, 20 uM, 50 uM, 100 uM, 150 uM, 200 uM, 250 uM, 300 uM and 500 uM, Use a 10 ul pipette tip to mix them well, then place them at 4° C. for 5 min, absorbance at 395 nm (OD395 nm) was monitored at 4° C. using Nanodrop ONE (Thermo Fisher Scientific, Inc.). […] The turbidity level reflects the degree of phase separation.
For γD-crystallin, γD-crystallin was purified in vitro, then were dissolved in protein solubilization buffer (150 mM NaCl, 50 mM tris-HCl, PH 7.5) to a final concentration of 50 mg/ml, Place γD-crystallin at 4° C. for 20 minutes to induce phase separation.
We followed the Turbidity Assays experiment as previously reported. Briefly, G3BP1 turbidity analysis were at room temperature and γD-crystallin protein was at 4° C. Proteins and Champ-E(RJK001), Champ-K, Champ-D or mutants are mixed at room temperature for 10 minutes prior to turbidity assays. […] Absorbance at 395 nm (OD395 nm) was monitored at room temperature using Nanodrop ONE (Thermo Fisher Scientific, Inc.).

[1] = tested on: crystallin proteins of the lens from cataract patients; experiment: Soluble crystallin in cataract lens grinding fluid by western blot (anti-βB1 crystallin); parameters: species or system human; settings: 20 ul 2.5 mM RJK001 in 2 ul grinding fluid, RT 10 min
Method: Quantitative analysis was performed using densitometry of crystallin proteins by western blot analysis of the supernatant or insoluble fraction of cell lysates.
Quantitative analysis was performed using densitometry of crystallin proteins by western blot analysis of the supernatant or insoluble fraction of lens lysates. Collect one intact eye lenses from cataract patients. Put it in 2 ml Eppendorf tube containing 700 ul protein solubilization buffer, Grind the complete lens at 4° C., 30s once for 3 times with Electric grinder to obtain 1 ml grinding fluid, add 20 ul 2.5 mM RJK001 in 2 ul grinding fluid as the experimental group, add 20 ul protein dissolving solution in 2 ul grinding fluid as a control, place it at RT for 10 min, centrifuge at 13000 rpm and take the supernatant for western blotting, After blocking with 5% milk, membrane were incubated with anti-βB1 crystallin (Santacruz, sc-48335, 1:3000) overnight at 4° C., Membrane were incubated with secondary antibodies for 1 h at room temperature, then the blots were detected by the enhanced chemiluminescence.
C-terminal fusion cell-penetrating peptide RJK001 and N-terminal fusion cell-penetrating peptide RJK012 were purified in vitro and added into SH-SY5Y cell. Cells were harvested at 1 h, 4 h, 8 h and 24 h respectively and were washed with PBS. Total proteins were extracted from SH-SY5Y cells with lysis buffer. […]

[2] = tested on: crystallin aggregation from cataract patients; experiment: Dissolution of crystallin aggregation in lens lysates from cataract patients; parameters: species or system human
Method: 30-50 ml lens lysates after phacoemulsification was collected from cataract patients with different disease progressions. Lanosterol was used as a benchmark medicament (see, Zhao, Ling, et al. “Lanosterol reverses protein aggregation in cataracts.” Nature 523. 7562 (2015): 607-611). […] Moreover, the concentration of the polypeptides provided herein (e.g., RJK001) was as less as 1/100 of the concentration of Lanosterol required to achieve the same dissolving effect.
30-50 ml Phacoemulsification of eye lens was collected from cataract patients with different disease progression. Let Phacoemulsification pass the 3KD protein concentration tube, and centrifuge at 4000 g for 20 minutes. centrifuge at 14000 g for 5 minutes after repeating the previous step to get the concentrate. Concentrate phacoemulsification to 200-300 ul every lens. Add 8 ul phacoemulsification concentrate in the following groups: 1, 8 ul crystalline concentrate; 2, 8 ul 1 mM lanosterol; 3, 8 ul 1 mM short peptide RJK001; 4, 8 ul protein solubilization buffer. Use a 20 ul pipette tip to mix them well, then stand still at RT for 20 min.

G3BP1 = target: T2, G3BP1 (Mus musculus, UniProt P97855); experiment: G3BP1 turbidity assay (OD395 nm); assay type: biochemical; settings: G3BP1 30 μM, ratio range 0.75 to 25, room temperature, 10 minutes
T2 construct: Genes of full-length mouse G3BP1, G3BP1-eGFP; thrombin protease cleavage site (C); His6 (C); made in house; host or cells: Escherichia coli rosetta (DE3)
Method: The turbidity of G3BP1 (30 μM) in the presence of various concentrations of Champ-E, Champ-D, Champ-K, or Champ-Q was measured at a wavelength of 395 nm. Briefly, G3BP1 protein ([…]) and polypeptides Champ-E (RJK001), Champ-D (RJK002), Champ-K (RJK012) and Champ-Q (RJK005) were mixed well in a ratio range of 0.75 to 25 at room temperature for 10 minutes prior to turbidity assays. Absorbance at 395 nm (OD395 nm) was monitored at room temperature using Nanodrop ONE (Thermo Fisher Scientific, Inc.). […] The turbidity level reflects the degree of phase separation.
Briefly, the G3BP1 protein and the above-mentioned peptides were mixed at room temperature for 10 minutes prior to turbidity assays. 30 μM G3BP1 and peptide were mixed well in a ratio range of 0.75 to 25 before test. Absorbance at 395 nm (OD395 nm) was monitored at room temperature using Nanodrop ONE (Thermo Fisher Scientific, Inc.).
We followed the Turbidity Assays experiment as previously reported. Briefly, G3BP1 turbidity analysis were at room temperature and γD-crystallin protein was at 4° C. Proteins and Champ-E(RJK001), Champ-K, Champ-D or mutants are mixed at room temperature for 10 minutes prior to turbidity assays. 20 μM G3BP1 and 50 mg/ml(2.5 mM) γD-crystallin and peptide were mixed well in a ratio range of 0.75 to 25 before test. Absorbance at 395 nm (OD395 nm) was monitored at room temperature using Nanodrop ONE (Thermo Fisher Scientific, Inc.).

T2 sequence (P97855 whole entry): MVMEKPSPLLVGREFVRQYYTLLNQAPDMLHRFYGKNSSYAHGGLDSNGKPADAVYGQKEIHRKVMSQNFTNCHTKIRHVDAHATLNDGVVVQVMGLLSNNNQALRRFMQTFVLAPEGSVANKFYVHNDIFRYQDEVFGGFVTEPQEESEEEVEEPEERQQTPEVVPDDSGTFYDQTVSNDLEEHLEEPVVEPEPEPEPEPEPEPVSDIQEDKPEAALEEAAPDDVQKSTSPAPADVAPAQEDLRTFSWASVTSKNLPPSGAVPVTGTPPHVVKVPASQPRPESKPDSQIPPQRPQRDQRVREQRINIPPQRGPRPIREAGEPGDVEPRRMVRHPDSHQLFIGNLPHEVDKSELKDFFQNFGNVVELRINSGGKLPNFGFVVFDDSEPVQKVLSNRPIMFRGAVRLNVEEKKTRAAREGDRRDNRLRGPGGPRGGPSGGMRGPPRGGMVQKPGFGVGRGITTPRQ

With “TEPQEESEEEVEEPEERQQTPEVVPDDSGTFYDQTVSNDLE [RJK001, polypeptide with hydrophilic and hydrophobic segment, expressed in E. coli]” the “turbidity of γD-crystallin (OD395 nm)” value (γD-crystallin) was “reduced the turbidity of γD-crystallin in a concentration dependent manner”, the “solubility of crystallin proteins of the lens (supernatant western blot)” value [1] was “could improve the solubility of crystallin proteins” and the “dissolving crystallin aggregation in lens lysates” value ([2]; lens lysates after phacoemulsification, RT 20 min) was “could effectively dissolve the crystallin aggregation from cataract patients”. For the same sequence, the “concentration relative to the concentration of Lanosterol required to achieve the same dissolving effect” value ([2]; lens lysates from cataract patients, Lanosterol as benchmark) was 1/100 and the “turbidity of G3BP1 (OD395 nm)” value (G3BP1) was “reduced the turbidity in a concentration dependent manner”.
